Laboratory results reported in US8895753B2, “S1P receptor modulating agent” (Meiji Seika Pharma Co., Ltd., priority 2011, dated 2014).
Several values for one entry are separate records, joined by “and”; a condition that tells them apart may be missing. Equal entries are not always repeated.

How the values were obtained:
Human S1P1 receptor [1] = biological target: T1, Human S1P1 receptor (Homo sapiens, UniProt P21453); assay: Agonist activity at an S1P1 receptor (reporter assay, EDG1-bla/U2OS cells); type: cell-based; parameters: host or cells: U2OS (EDG1-bla/U2OS); conditions: S1P maximum response = 100%
T1 sequence (P21453 whole entry): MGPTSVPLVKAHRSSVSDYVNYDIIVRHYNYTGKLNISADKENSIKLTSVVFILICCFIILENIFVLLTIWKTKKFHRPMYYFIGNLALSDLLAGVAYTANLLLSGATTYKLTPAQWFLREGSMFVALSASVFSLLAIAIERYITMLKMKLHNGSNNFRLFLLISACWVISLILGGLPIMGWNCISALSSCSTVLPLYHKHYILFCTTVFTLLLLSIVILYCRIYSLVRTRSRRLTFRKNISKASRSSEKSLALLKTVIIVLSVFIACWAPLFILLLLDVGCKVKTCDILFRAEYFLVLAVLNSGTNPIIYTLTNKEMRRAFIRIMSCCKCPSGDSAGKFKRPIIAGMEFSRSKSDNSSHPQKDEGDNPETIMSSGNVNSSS
Protocol: Human S1P1 receptor gene recombinant EDG1-bla/U2OS cells (Life Technologies Japan Ltd.) were plated in a 96-well half-sized clear bottom black plate at a density of 10000 cells/32 μL/well, and then the plate was incubated at 37° C. in a 5% CO2 incubator for 48 hours. A culture medium containing each test compound prepared as a 5× concentrate was added at 8 μL/well, and the plate was incubated at 37° C. in a 5% CO2 incubator for 5 hours. The substrate (LiveBLAzer™-FRET B/G substrate (CCF4-AM), Life Technologies Japan Ltd.) prepared as a 6× concentrate was added at 8 μL into each well, and the plate was incubated at room temperature for 2 hours in the dark. The fluorescence intensity of each well was detected using a bottom-reading fluorescence microplate reader (EnVision: ParkinElmer) at one excitation wavelength and 2 wavelengths for fluorescence emission (Ex409 nm, Em460 nm, Em530 nm). The intensity ratio of fluorescence at 460 nm/530 nm was calculated for each well. The maximum response ratio confirmed from the dose response of SIP was expressed as 100%. The concentration of a test compound required to stimulate 50% of its maximal activation was computed as EC50 (nM).

Human S1P4 receptor = biological target: T2, Human S1P4 receptor (Homo sapiens, UniProt O95977); assay: Agonist activity at an S1P4 receptor (calcium influx); type: cell-based; conditions: at 1000 nM; read-out: activity at S1P4 receptor (elevation of intracellular calcium)
T2 sequence (O95977 1-384): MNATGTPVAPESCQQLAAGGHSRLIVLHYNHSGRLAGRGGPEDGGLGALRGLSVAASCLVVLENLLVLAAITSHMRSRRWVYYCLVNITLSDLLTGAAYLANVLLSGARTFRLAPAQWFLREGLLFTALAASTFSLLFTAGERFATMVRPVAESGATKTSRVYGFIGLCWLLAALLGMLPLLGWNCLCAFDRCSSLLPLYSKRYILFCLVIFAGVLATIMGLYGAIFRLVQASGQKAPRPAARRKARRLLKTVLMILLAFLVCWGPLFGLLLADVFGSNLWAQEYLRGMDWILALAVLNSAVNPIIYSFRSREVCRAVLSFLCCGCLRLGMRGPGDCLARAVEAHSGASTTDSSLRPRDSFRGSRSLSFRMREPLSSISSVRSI
Protocol: By using Human S1P4 receptor expressing cells (Multispan Inc. CG1052-1), the elevation of intracellular calcium concentration via agonist activity by the addition of 1000 nM was measured by Fret method (fluorescence resonance energy transfer).

Human S1P1 receptor [2] = biological target: T1, Human S1P1 receptor; assay: Agonist activity at an S1P1 receptor ([35S]-GTPγS exchange reaction, membrane fractions); type: biochemical; conditions: read-out: EC50, agonist activity at S1P1 receptor (GTP exchange reaction)
Protocol: (§1) By using membrane fractions prepared from a human S1P1 receptor expressing cells (Multispan Ltd.), the agonist activity of each test compound was measured by [^35S]-GTPγS exchange reaction in accordance with a standard procedure (Methods in Molecular Biology, Vol. 552, p 143-151 (2009)), and EC50 (nM) of each test compound was computed.

Human S1P3 receptor = Human S1P3 receptor (Homo sapiens, UniProt Q99500); assay: Agonist activity at an S1P3 receptor ([35S]-GTPγS exchange reaction at 1000 nM); type: biochemical; conditions: read-out: percent of the maximal agonist activity at S1P3 receptor
Human S1P3 receptor, sequence (Q99500 whole entry): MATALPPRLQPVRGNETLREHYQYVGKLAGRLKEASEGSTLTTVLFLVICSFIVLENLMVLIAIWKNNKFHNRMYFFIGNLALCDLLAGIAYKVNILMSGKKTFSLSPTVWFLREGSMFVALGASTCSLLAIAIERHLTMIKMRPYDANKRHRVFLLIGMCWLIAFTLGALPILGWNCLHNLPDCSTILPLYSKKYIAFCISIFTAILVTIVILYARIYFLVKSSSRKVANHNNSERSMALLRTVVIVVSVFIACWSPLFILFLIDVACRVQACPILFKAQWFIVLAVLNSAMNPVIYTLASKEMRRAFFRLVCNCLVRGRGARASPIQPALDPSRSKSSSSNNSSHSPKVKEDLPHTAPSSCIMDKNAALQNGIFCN
Protocol: as §1
By using membrane fractions prepared from Human S1P3 receptor expressing cells (Multispan Inc.), the agonist activity of the compound in the present invention was measured by a [^35S]-GTPγS exchange reaction at 1000 nM by the similar method of the Experimental Example 2.

Row | EC50 (Human S1P1 receptor [1]) | activation at 1 µM (Human S1P4 receptor) | EC50 (Human S1P1 receptor [2]) | Emax at 1 µM (Human S1P3 receptor) | SMILES
1 | ≤ 100 nM and 87.1 nM |  |  |  | CC(C)Oc1ccc(-c2cnc(-c3ccc(CN4CC(c5nn[nH]n5)C4)cc3)s2)cc1 [Example 4, 2-(4-((3-(2H-tetrazol-5-yl)azetidin-1-yl)methyl)phenyl)-5-(4-isopropoxyphenyl)thiazole]
2 | ≤ 500 nM |  |  |  | CC(C)Oc1ccc(-c2cnc(-c3ccc(CN4CCC(C(=O)O)CC4)cc3)s2)cc1 [Example 5, 1-(4-(5-(4-isopropoxyphenyl)thiazol-2-yl)benzyl)piperidine-4-carboxylic acid]
3 | ≤ 100 nM and 72.6 nM |  |  |  | CC(C)Oc1cccc(-c2cnc(-c3ccc(CN4CC(C(=O)O)C4)cc3)s2)c1 [Example 7, 1-(4-(5-(3-isopropoxyphenyl)thiazol-2-yl)benzyl)azetidine-3-carboxylic acid]
4 | ≤ 10 nM and 6.58 nM | < 20% | ≤ 100 nM |  | CC(C)Oc1ccc(-c2cnc(-c3ccc(C(C)N4CC(C(=O)O)C4)cc3)s2)cc1 (stereo not drawn) [Example 8, 1-(1-(4-(5-(4-isopropoxyphenyl)thiazol-2-yl)phenyl)ethyl)azetidine-3-carboxylic acid]
5 | ≤ 1 nM and 0.076 nM | < 20% | ≤ 10 nM | 20 to 50% | CC(C)Oc1ccc(-c2cnc(-c3ccc(CN4CC(C(=O)O)C4)cc3F)s2)cc1Cl [Example 11, 1-(4-(5-(3-chloro-4-isopropoxyphenyl)thiazol-2-yl)-3-fluorobenzyl)azetidine-3-carboxylic acid]
6 | ≤ 10 nM | < 20% | ≤ 50 nM | 20 to 50% | CC(C)Oc1ccc(-c2cnc(-c3ccc(CN4CC(C(=O)O)C4)cc3Cl)s2)cc1 [Example 12, 1-(3-chloro-4-(5-(4-isopropoxyphenyl)thiazol-2-yl)benzyl)azetidine-3-carboxylic acid]
7 | ≤ 100 nM |  |  |  | CCCCc1cc(CN2CC(C(=O)O)C2)ccc1-c1ncc(-c2ccc(OC(C)C)cc2)s1 [Example 13, 1-(3-butyl-4-(5-(4-isopropoxyphenyl)thiazol-2-yl)benzyl)azetidine-3-carboxylic acid]
8 | ≤ 10 nM |  |  |  | CC(C)Oc1ccc(-c2cnc(-c3ccc(CN4CC(C(=O)O)C4)cc3C3CC3)s2)cc1 [Example 14, 1-(3-cyclopropyl-4-(5-(4-isopropoxyphenyl)thiazol-2-yl)benzyl)azetidine-3-carboxylic acid]
9 | ≤ 10 nM | < 20% |  | < 20% | CCc1cc(CN2CC(C(=O)O)C2)ccc1-c1ncc(-c2ccc(OC(C)C)cc2)s1 [Example 15, 1-(3-ethyl-4-(5-(4-isopropoxyphenyl)thiazol-2-yl)benzyl)azetidine-3-carboxylic acid]
10 | ≤ 100 nM |  |  |  | O=C(O)C1CN(Cc2ccc(-c3ncc(-c4ccc(OC5CC5)cc4)s3)cc2)C1 [Example 16, 1-(4-(5-(4-cyclopropoxyphenyl)thiazol-2-yl)benzyl)azetidine-3-carboxylic acid]
11 | ≤ 10 nM | < 20% | ≤ 50 nM |  | CC(C)Oc1ccc(-c2cnc(-c3ccc(CN4CC(C(=O)O)C4)cc3F)s2)cc1 [Example 17, 1-(3-fluoro-4-(5-(4-isopropoxyphenyl)thiazol-2-yl)benzyl)azetidine-3-carboxylic acid]
12 | ≤ 500 nM |  |  |  | COc1cc(CN2CC(C(=O)O)C2)ccc1-c1ncc(-c2ccc(OC(C)C)cc2)s1 [Example 18, 1-(4-(5-(4-isopropoxyphenyl)thiazol-2-yl)-3-methoxybenzyl)azetidine-3-carboxylic acid]
13 | ≤ 100 nM |  |  |  | CCc1cc(-c2ncc(-c3ccc(OC(C)C)cc3)s2)ccc1CN1CC(C(=O)O)C1 [Example 20, 1-(2-ethyl-4-(5-(4-isopropoxyphenyl)thiazol-2-yl)benzyl)azetidine-3-carboxylic acid]
14 | ≤ 10 nM | < 20% | ≤ 50 nM | 20 to 50% | Cc1cc(CN2CC(C(=O)O)C2)ccc1-c1ncc(-c2ccc(OC(C)C)cc2)s1 [Example 21, 1-(4-(5-(4-isopropoxyphenyl)thiazol-2-yl)-3-methylbenzyl)azetidine-3-carboxylic acid]
15 | ≤ 10 nM | < 20% | ≤ 10 nM | < 20% | CC(C)Oc1ccc(-c2cnc(-c3ccc(CN4CC(C(=O)O)C4)c(F)c3)s2)cc1 [Example 22, 1-(2-fluoro-4-(5-(4-isopropoxyphenyl)thiazol-2-yl)benzyl)azetidine-3-carboxylic acid]
16 | ≤ 100 nM |  |  |  | CC(C)Oc1ccc(-c2cnc(-c3ccc(CN4CC(C(=O)O)C4)c(C4CC4)c3)s2)cc1 [Example 24, 1-(2-cyclopropyl-4-(5-(4-isopropoxyphenyl)thiazol-2-yl)benzyl)azetidine-3-carboxylic acid]
17 | ≤ 10 nM |  |  |  | Cc1cc(-c2ncc(-c3ccc(OC(C)C)cc3)s2)ccc1CN1CC(C(=O)O)C1 [Example 25, 1-(4-(5-(4-isopropoxyphenyl)thiazol-2-yl)-2-methylbenzyl)azetidine-3-carboxylic acid]
18 | ≤ 100 nM |  |  |  | COc1cc(-c2ncc(-c3ccc(OC(C)C)cc3)s2)ccc1CN1CC(C(=O)O)C1 [Example 26, 1-(4-(5-(4-isopropoxyphenyl)thiazol-2-yl)-2-methoxybenzyl)azetidine-3-carboxylic acid]
19 | ≤ 100 nM |  |  |  | CC(C)Oc1ccc(-c2cnc(-c3ccc(CN4CC(C(=O)O)C4)c(C(F)(F)F)c3)s2)cc1 [Example 27, 1-(4-(5-(4-isopropoxyphenyl)thiazol-2-yl)-2-(trifluoromethyl)benzyl)azetidine-3-carboxylic acid]
20 | ≤ 100 nM |  |  |  | CC(C)(C)c1ccc(-c2cnc(-c3ccc(CN4CC(C(=O)O)C4)cc3)s2)cc1 [Example 33, 1-(4-(5-(4-tert-butylphenyl)thiazol-2-yl)benzyl)azetidine-3-carboxylic acid]
21 | ≤ 500 nM |  |  |  | CCCCCCc1ccc(-c2cnc(-c3ccc(CN4CC(C(=O)O)C4)cc3)s2)cc1 [Example 35, 1-(4-(5-(4-hexylphenyl)thiazol-2-yl)benzyl)azetidine-3-carboxylic acid]
22 | ≤ 500 nM |  |  |  | CCCCCOc1ccc(-c2cnc(-c3ccc(CN4CC(C(=O)O)C4)cc3)s2)cc1 [Example 40, 1-(4-(5-(4-pentyloxyphenyl)thiazol-2-yl)benzyl)azetidine-3-carboxylic acid]
23 | ≤ 100 nM |  |  |  | O=C(O)C1CN(Cc2ccc(-c3ncc(-c4ccc(OC5CCCC5)cc4)s3)cc2)C1 [Example 41, 1-(4-(5-(4-(cyclopentyloxy)phenyl)thiazol-2-yl)benzyl)azetidine-3-carboxylic acid]
24 | ≤ 100 nM |  |  |  | O=C(O)C1CN(Cc2ccc(-c3ncc(-c4ccc(OC5CCCCC5)cc4)s3)cc2)C1 [Example 43, 1-(4-(5-(4-(cyclohexyloxy)phenyl)thiazol-2-yl)benzyl)azetidine-3-carboxylic acid]
25 | ≤ 100 nM |  |  |  | CCCCCc1ccc(-c2cnc(-c3ccc(CN4CC(C(=O)O)C4)cc3)s2)cc1 [Example 49, 1-(4-(5-(4-pentylphenyl)thiazol-2-yl)benzyl)azetidine-3-carboxylic acid]
26 | ≤ 100 nM |  |  |  | Cc1cc(OC(C)C)ccc1-c1cnc(-c2ccc(CN3CC(C(=O)O)C3)cc2)s1 [Example 54, 1-(4-(5-(4-isopropoxy-2-methylphenyl)thiazol-2-yl)benzyl)azetidine-3-carboxylic acid]

Row | SMILES | EC50 (Human S1P1 receptor [1]) | activation at 1 µM (Human S1P4 receptor) | EC50 (Human S1P1 receptor [2]) | Emax at 1 µM (Human S1P3 receptor)
27 | CCCCOc1ccc(-c2cnc(-c3ccc(CN4CC(C(=O)O)C4)cc3)s2)cc1 [Example 39, 1-(4-(5-(4-butoxyphenyl)thiazol-2-yl)benzyl)azetidine-3-carboxylic acid] | ≤ 100 nM |  |  | 
